From patent US20230357219A1, “PREPARATION OF BIARYL RING-LINKED AROMATIC HETEROCYCLIC DERIVATIVE AS IMMUNOMODULATOR AND USE THEREOF” (SHANGHAI LONGWOOD BIOPHARMACEUTICALS CO., LTD., priority 2020, published 2023)

Biological target: PD-1/PD-L1 (Homo sapiens (Human), UniProt Q9NZQ7)
Assay: PD-1/PD-L1 Homogeneous Time-Resolved Fluorescence (HTRF) Binding Assay
Conditions: ~3 nM of PD1, 10 nM of PD-L1; 25° C., PBS buffer (pH 7.4)
Procedure: Assays were performed in standard black 384-well polystyrene plates and a final volume was 20 µL. The inhibitor was first serially diluted with DMSO and added to the wells of the plate, then other reaction components were added. The final concentration of DMSO in the assay was 1%. Assays were performed at 25° C. in PBS buffer (pH 7.4) containing 0.05% Tween-20 and 0.1% BSA. Recombinant human PD-L1 protein (19-238) with a His-tagged at the C-terminus was purchased from AcroBiosystems (PD1-H5229). Recombinant human PD-1 protein (25-167) with an Fc tag at the C-terminus was also purchased from AcroBiosystems (PD1-H5257). The PD-L1 and PD-1 proteins were diluted in assay buffer and then 0.1 µl of the solution was extracted and added to the wells of the plate. Plates were centrifuged and proteins and inhibitors were preincubated for 40 minutes. After incubation, 0.1 µl of HTRF detection buffer containing europium […] labeled anti-human IgG (PerkinElmer-AD0212), Fc-specific and anti-His SureLight®-Allophycocyanin (APC, PerkinElmer-AD0059H) conjugated antibodies was added. After centrifugation, the plates were incubated at 25° C. for 60 minutes. Data was read in a PHERAstar FS plate reader (665 nm/620 nm ratio). Final concentrations in the assay were ~3 nM of PD1, 10 nM of PD-L1, 1 nM of europium anti-human IgG, and 20 nM of anti-His-allophycocyanin. Activity data were fitted using GraphPad Prism 5.0 software to derive IC50 values for inhibitors. The IC50 values of the compounds exemplified in the examples are expressed in the following manner: IC50: + = ≤100 nM; ++ =100 nM-1000 nM; +++ = >1000 nM. The data of the example compounds obtained by PD-1/PD-L1 homogeneous time-resolved fluorescence (HTRF) binding assay described in Example A were provided in Table 1.

Sequence of PD-1/PD-L1 (Q9NZQ7 19-238): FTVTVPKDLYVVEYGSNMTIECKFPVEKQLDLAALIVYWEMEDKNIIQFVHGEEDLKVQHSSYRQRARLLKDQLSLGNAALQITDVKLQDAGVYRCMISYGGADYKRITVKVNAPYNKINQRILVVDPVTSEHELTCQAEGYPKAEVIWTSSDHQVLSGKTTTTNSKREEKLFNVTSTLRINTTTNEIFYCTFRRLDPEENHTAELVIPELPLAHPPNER

IC50 | SMILES
≤ 100 nM | COc1nc(O[C@@H]2CCc3c(-c4cccc(Nc5nccc6cc(CN7CC[C@@H](O)C7)cnc56)c4C)cccc32)ccc1CN1CC[C@@H](C(=O)O)C1 [Compound 3]
≤ 100 nM | COc1nc(O[C@@H]2CCc3c(-c4cccc(Nc5nccc6cc(CN7CC[C@@H](C(=O)O)C7)cnc56)c4C)cccc32)cnc1CN1CC[C@@H](O)C1 [Compound 4]
≤ 100 nM | COc1nc(O[C@@H]2CCc3c(-c4cccc(Nc5nccc6cc(CN7CC[C@@H](O)C7)cnc56)c4C)cccc32)cnc1CN1CC[C@@H](C(=O)O)C1 [Compound 5]
≤ 100 nM | COc1nc(O[C@@H]2CCc3c(-c4cccc(-c5nc6cc(CN7CC[C@@H](C(=O)O)C7)cc(C#N)c6o5)c4C)cccc32)ccc1CN1CC[C@@H](O)C1 [Compound 6]
≤ 100 nM | COc1nc(O[C@@H]2CCc3c(-c4cccc(Nc5nccc6cc(CN7CC[C@@H](C(=O)O)C7)cnc56)c4C)cccc32)ccc1CN1CC[C@@H](O)C1 [Compound 7]
≤ 100 nM | COc1nc(O[C@@H]2CCc3c(-c4cccc(-c5nc6cc(CN7CC[C@@H](C(=O)O)C7)cc(C#N)c6o5)c4C)cccc32)cnc1CN1CC[C@@H](O)C1 [Compound 8]
≤ 100 nM | COc1nc(O[C@@H]2CCc3c(-c4cccc(-c5nc6cc(CN7CC[C@@H](O)C7)cc(C#N)c6o5)c4C)cccc32)cnc1CN1CC[C@@H](C(=O)O)C1 [Compound 9]
≤ 100 nM | COc1nc(O[C@@H]2CCc3c(-c4cccc(Nc5nccc6cc(CN7CC[C@@H](C(=O)O)C7)cnc56)c4Cl)cccc32)ccc1CN1CC[C@@H](O)C1 [Compound 10]
≤ 100 nM | COc1nc(O[C@@H]2CCc3c(-c4cccc(Nc5nccc6cc(CN7CC[C@@H](C(=O)O)C7)cnc56)c4Cl)cccc32)cnc1CN1CC[C@@H](O)C1 [Compound 12]
≤ 100 nM | COc1nc(O[C@@H]2CCc3c(-c4cccc(Nc5nccc6cc(CN7CC[C@H](O)C7)cnc56)c4Cl)cccc32)cnc1CN1CC[C@@H](C(=O)O)C1 [Compound 13]
